We go through 5 compounds from paper PMC12728655, “Engineering an Artificial Myxopyronin Derivative with Enhanced Metabolic Stability via Mutasynthesis” (JACS Au, 2025).

What is called half-life is the time needed for the level to fall by half in the phase considered. What is called microsomal CLint is the rate of metabolic loss divided by the concentration. Lower therefore signals greater metabolic stability. The term fraction unbound denotes the share of the substance not bound to proteins or other matrix. Read a high fraction unbound as weak binding. A word on the viability: it is the share of living cells, or the viability signal relative to a control. A higher viability goes with better survival. As a reminder, the hepatocyte CLint is the capacity of the preparation to metabolise the compound, expressed as a volume cleared per time.

Data set [1] is described as follows: in vitro. Format: in vitro ADME. The following applies: Wistar, rat, plasma. As for the experimental part:
(§1) To determine stability in plasma, the compound (1 µM) was incubated with pooled CD-1 mouse/human or Wistar rat plasma (Neo Biotech, Nanterre, France). Samples were taken by […]
(§2) 10% methanol/acetonitrile). The plasma stability of procain, propantheline and diltiazem were determined in parallel to confirm the enzymatic activity. Samples were stored on ice until the end of the incubation and precipitated protein was removed by centrifugation (15 min, 4 °C, 4,000 g, two centrifugation steps). Concentration of the remaining test compound at the different time points was analyzed by HPLC-MS/MS (Vanquish Flex coupled to a TSQ Altis Plus, Thermo Fisher, Dreieich, Germany). The plasma stability of procain, propantheline and diltiazem were determined in parallel to confirm the enzymatic activity. […]

In the next data set the test system is M^R/V^R-S. aureus Mu50. Put plainly: microbe, parasite or virus in culture. Particulars: Staphylococcus aureus. Format: cell-based.
A further data set deals with E. coli ΔtolC. Put plainly: microbe, parasite or virus in culture. In kind it is cell-based. Particulars: Escherichia coli.
Data set [2] in a line: in vitro. The following applies: C57BL/6, mouse, microsomes.
The nature of data set [3]: in vitro. In kind it is in vitro ADME. The following applies: plasma, pH 7.4. As for the experimental part:
Plasma protein binding was determined using the Rapid Equilibrium Dialysis (RED) system (Thermo Fisher Scientific, Waltham MA, USA). Compounds were diluted to 10 µM in 50% murine (CD-1), human or Wistar rat plasma (Neo Biotech, Nanterre, France) in PBS pH 7.4 and added to the respective chamber according to the manufacturer’s protocol, followed by addition of PBS pH 7.4 to the opposite chamber. Samples were taken immediately after addition to the plate as well as after 2, 4 and 5 h by mixing 10 µL with 80 µL ice-cold ice-cold […]
(1 picture or pasted object on this page, not shown here) […]
by addition of 10 µL plasma to samples taken from PBS and vice versa. Samples were stored on ice until the end of the incubation and precipitated protein was removed by centrifugation (15 min, 4 °C, 4,000 g, 2 centrifugation steps). Concentration of the remaining test compound at the different time points was analyzed by HPLC-MS/MS (Vanquish Flex coupled to a TSQ Altis Plus, Thermo Fisher, Dreieich, Germany). […]
Germany). To obtain percent viability for each sample, their ODs were related to those of DMSO controls. At least three independent measurements were performed for each compound. The calculation of CC50 was performed using the nonlinear regression function of GraphPad Prism 10 (GraphPad Software, San Diego, CA, USA).

The next data set concerns E. faecalis DSM-20478. In kind it is cell-based. The following applies: Enterococcus faecalis, DSM20478.
For the next data set, the system named is M^R -S. aureus N315. Put plainly: microbe, parasite or virus in culture. The following applies: Staphylococcus aureus. In kind it is cell-based.
Data set [4] can be described thus: in vitro. Format: in vitro ADME. Particulars: plasma. The method, then: Figure S6: Metabolic stability in human liver microsomes with CYP isozyme involvement. (A) Human microsomal metabolism of MXY A (1) and (B) for MXY (8) in presence of 10 µM CYP inhibitors for CYP3A4 (ketoconazole), CYP1A2 (fluvoxamine), CYP2C9 (sulfaphenazole) or CYP2D6 (quinidine). The remaining test compound compared to t=0 min is given. (C) Corresponding half-lives (t1/2s) and fold increase compared to t1/2 of the compound in absence of inhibitors. Values represent means ± standard deviation (SD) of at least 3 independent measurements. *Mean half-life in presence of DMSO represents only assays where direct comparison to CYP inhibitors was performed; Table 2 of the main text includes additional replicates.
as §1, §2

Data set [5] is described as follows: in vitro. The following applies: Wistar, rat, microsomes.
A further data set is described as follows: Cytotoxicity assay (MTT). Format: cell-based. The following applies: human, HepG2 cells, HepG2, 100 μM. The method, then: by addition of 10 µL plasma to samples taken from PBS and vice versa. Samples were stored on ice until the end of the incubation and precipitated protein was removed by centrifugation (15 min, 4 °C, 4,000 g, 2 centrifugation steps). Concentration of the remaining test compound at the different time points was analyzed by HPLC-MS/MS (Vanquish Flex coupled to a TSQ Altis Plus, Thermo Fisher, Dreieich, Germany). The amount of compound bound to protein was calculated using the equation PPB [%] = 100 – 100 x (amount in buffer chamber/amount in […]
To obtain information regarding the toxicity of test compounds, their impact on the viability of human cells was investigated. HepG2 cells (2x10^4 cells per well) were seeded in 96-well, flat-bottomed culture plates in 100 µL culture medium (DMEM containing 10% fetal calve serum, 1% penicillin-streptomycin). Twenty-four hours after seeding the cells, medium was removed and replaced by medium containing test compounds in a final DMSO concentration of 1%.
Compounds were tested in duplicates at a single concentration or, for CC 50 determination, at 8 concentrations that were prepared via 2-fold serial dilutions in 1% DMSO/medium. Epirubicin and doxorubicin were used as positive controls in serial dilutions starting from 10 µM, and rifampicin was used as a negative control (at 100 µM). […]

For the next data set, the system named is wt-S. aureus Newman. Format: cell-based. Particulars: Staphylococcus aureus.
A short description of data set [6]: Metabolic stability in liver microsomes. The following applies: C57BL/6, mouse. In general terms: Liver microsomes are vesicles of endoplasmic reticulum, rich in cytochrome P450 enzymes.
The nature of data set [7]: in vitro. Format: in vitro ADME. The following applies: mouse, hepatocytes. The method, then:
Metabolic stability in mouse hepatocytes
For the evaluation of combined phase I and phase II metabolic stability, the compound (1 μM) was incubated with 0.25 x 10^6 cells/mL of pooled mouse hepatocytes (Xenotech, Kansas City, USA). Cells were thawed in Leibovitz’s L-15 medium without phenol red (ThermoFisher Scientific, Waltham, USA). Briefly, cells were transferred into 50 mL of medium, followed by centrifugation at 55 g for 3 min. Supernatant was discarded and the cell count determined after gently resuspending the cell pellet in 1 mL of medium. Hepatocytes were diluted to 0.5 x 10^6 cells/mL and incubated at 37 °C, 700 rpm for 10 min, to achieve the desired final cell count after addition of an equal volume of test compounds in medium, leading to final test concentration of 1 µM at 1% DMSO. Samples were incubated at 37 °C, for 240 min, 700 rpm and the incubation was stopped after defined time points by precipitation of aliquots in 4 […]
methanol/acetonitrile). The metabolic stability of testosterone, verapamil, ketoconazole and 7-hydroxycoumarine were determined in parallel to confirm the enzymatic activity of mouse hepatocytes. Samples were stored on ice until the end of the incubation and precipitated protein was removed by centrif ugation (15 min, 4 °C, 4. 000 g). […]

The nature of data set [8]: in vitro. Particulars: human, microsomes, Liver microsomes Clint.
Another data set relates to Rif^R-S. aureus Newman. Put plainly: microbe, parasite or virus in culture. Format: cell-based. The following applies: Staphylococcus aureus.
The subject of the next data set is wt-M. tuberculosis H37Rv. Put plainly: microbe, parasite or virus in culture. In kind it is cell-based. The following applies: Mycobacterium tuberculosis.
Data set [9] in a line: Metabolic stability in liver microsomes. The following applies: Wistar, rat.
For data set [10] the following is noted: Wistar, rat, microsomes, 2 h, 1 µM.
A short description of data set [11]: Metabolic stability in liver microsomes. Particulars: human.
The conditions of data set [12]: human, 1 µM.
The conditions of data set [13]: stated as known, reference not given; cited from earlier work.
A short description of data set [14]: Stability during large-scale production and isolation. Particulars: large-scale production, also with exclusion of light.
Excerpt: We initially attempted the large-scale production of furan analog 14.

Values after ≈ are worked out from the molar mass of the structure shown. Where two headings read alike, the source gives them in different places.

For the compound `COC(=O)N/C=C/CC[C@@H](C)c1cc(O)c(C(=O)/C(C)=C/C=C(\C)CCC(F)(F)F)c(=O)o1` [MYX (8)], the half-life at 1 µM in the data set “in vitro [1]” was greater than 4 h; in “in vitro [4]” (CD-1, mouse), greater than 4 h; in “in vitro [4]” (human), greater than 4 h; in data set [6], 1.13 ± 0.117 h; in the data set “in vitro [7]” it was greater than 4 h; in data set [9], roughly 2 h. For the same compound, the half-life at 1 µM in [11] came to 0.867 ± 0.217 h. The MIC against M^R/V^R-S. aureus Mu50 is 1 to 2 mg/L (≈ 2.12 to 4.24 µM); in the data set with E. coli ΔtolC, 4 mg/L (≈ 8.48 µM); in the data set with E. faecalis DSM-20478, greater than 64 mg/L; in the data set with M^R -S. aureus N315, 2 to 4 mg/L (≈ 4.24 to 8.48 µM); in the data set on wt-S. aureus Newman (NEWMAN) it was 2 mg/L (≈ 4.24 µM); against Rif^R-S. aureus Newman, 2 mg/L (≈ 4.24 µM). Further, in the data set with wt-M. tuberculosis H37Rv, the MIC stood at 2 mg/L (≈ 4.24 µM). For the same compound, the microsomal CLint at 1 µM in “in vitro [2]” was 21 µL/min/mg; in the data set “in vitro [5]” it was roughly 11.6 µL/min/mg; in “in vitro [8]”, 28 µL/min/mg. In addition, the unbound share (fraction unbound) at 10 µM was 0.0036 in “in vitro [3]” (CD-1, mouse); 0.0049 in the data set “in vitro [3]” (Wistar, rat); 0.0162 in the data set “in vitro [3]” (human). The compound further yielded a viability at 48 h, 100 µM in the data set “Cytotoxicity assay (MTT)” of 44 ± 9%. Also, in “in vitro [7]”, the hepatocyte CLint at 1 µM was less than 3.8 µL/min/1e6 cells. Moreover, the “Remaining amount of parent compound at 120 min” value in [10] amounted to 49 ± 13%.

Take `CCC/C(C)=C/C=C(\C)C(=O)c1c(O)cc([C@H](C)CC/C=C/NC(=O)OC)oc1=O` [MYX A (1), myxopyronins A]: the half-life at 1 µM in the data set “in vitro [1]” was greater than 4 h; in “in vitro [4]” (CD-1, mouse) it was greater than 4 h; in “in vitro [4]” (human), greater than 4 h; in data set [6] it was 0.317 ± 0.0667 h; in “in vitro [7]”, greater than 4 h; in data set [9], roughly 2 h. Also, the half-life at 1 µM in data set [11] was determined as 0.122 ± 0.0417 h. The MIC against M^R/V^R-S. aureus Mu50 was 1 to 2 mg/L (≈ 2.4 to 4.79 µM); against E. coli ΔtolC it was 1 to 2 mg/L (≈ 2.4 to 4.79 µM); against E. faecalis DSM-20478, greater than 64 mg/L; with M^R -S. aureus N315, 4 mg/L (≈ 9.58 µM); against wt-S. aureus Newman (NEWMAN) it was 2 to 4 mg/L (≈ 4.79 to 9.58 µM); against Rif^R-S. aureus Newman, 2 mg/L (≈ 4.79 µM). For the same compound, the MIC in the data set on wt-M. tuberculosis H37Rv amounted to 4 mg/L (≈ 9.58 µM). Further, the “Liver microsomes Clint” value in data set [12] is 211 ± 37 µL/min/mg. Also, the results for the microsomal CLint at 1 µM in “in vitro [2]”, in “in vitro [5]” and in “in vitro [8]” were 76 µL/min/mg, roughly 11.6 µL/min/mg and 157 µL/min/mg, respectively. Besides, the fraction unbound at 10 µM in “in vitro [3]” (CD-1, mouse) is 0.0026; in the data set “in vitro [3]” (Wistar, rat), 0.0054; in the data set “in vitro [3]” (human), 0.0107. This compound registered a viability at 48 h, 100 µM in “Cytotoxicity assay (MTT)” of 39 ± 6%. This compound had a hepatocyte CLint at 1 µM in the data set “in vitro [7]” of less than 3.8 µL/min/1e6 cells. For the same compound, the “Remaining amount of parent compound at 120 min” value in data set [10] came to 51 ± 12%.

Take `CCCC/C(C)=C/C=C(\C)C(=O)c1c(O)cc([C@H](C)CC/C=C/NC(=O)OC)oc1=O` [MYX B (2)]: in [13], the “half-life in human liver microsomes” value is given as 3 min.

Take `COC(=O)N/C=C/CC[C@@H](C)c1cc(O)c(C(=O)/C(C)=C/C=C(\C)c2ccoc2)c(=O)o1` [compound 14]: in [14], the “decomposition during fermentation and isolation” value was “highly susceptible to rapid decomposition”.

As for `CO[C@H]1/C=C/O[C@@]2(C)Oc3c(C)c(O)c4c(O)c(c(/C=N/N5CCN(C)CC5)c(O)c4c3C2=O)NC(=O)/C(C)=C\C=C\[C@H](C)[C@H](O)[C@@H](C)[C@@H](O)[C@@H](C)[C@H](OC(C)=O)[C@@H]1C` [rifampin], the MIC in the data set on M^R/V^R-S. aureus Mu50 (methicillin- and vancomycin-resistant S. aureus Mu50, read-out: MIC) was greater than 64 mg/L; in the data set with E. coli ΔtolC, 16 mg/L (≈ 19.4 µM); in the data set on E. faecalis DSM-20478 (E. faecalis DSM-20478, read-out: MIC), 1 mg/L (≈ 1.22 µM); in the data set on M^R -S. aureus N315 (methicillin-resistant S. aureus N315, read-out: MIC), 0.0025 mg/L (≈ 0.00304 µM); in the data set on wt-S. aureus Newman (wt-S. aureus Newman, read-out: MIC), 0.005 mg/L (≈ 0.00608 µM); against Rif^R-S. aureus Newman, greater than 64 mg/L. Besides, the MIC with wt-M. tuberculosis H37Rv came out at 0.03 mg/L (≈ 0.0365 µM).
